Experimental findings from BindingDB's records for doi:10.1021/jm060947x (Institut D'Investigacions Biomèdiques August Pi I, 2007) are described below.

As a reminder, the Kd is the equilibrium constant for the complex coming apart.

Assay [1] is described as follows: Displacement of [3H]YM 09151-2 from dopamine D2 receptor in lamb striatum membrane after 2 hrs.
Assay [2] in a line: Displacement of [3H]SCH 23390 from dopamine D1 receptor in lamb striatum membrane after 1 hr.
Assay [3] in a line: Displacement of [3H]R-PIA from adenosine A1 receptor in lamb striatum membrane after 1 hr. Background: Loss of bound radioactivity is the signal in a displacement assay; it reports binding, not function.

On to `CN1C[C@H](C(=O)N[C@@H](Cc2ccc([N+](=O)[O-])cc2)C(=O)N[C@@H](Cc2ccc(F)cc2)C(=O)N2CCCC(C(N)=O)C2)C=C2c3cccc4[nH]cc(c34)C[C@H]21` (stereo partly drawn) [(6aR,9R)-N-((S)-1-((S)-1-(3-carbamoylpiperidin-1-yl)-3-(4-fluorophenyl)-1-oxopropan-2-ylamino)-3-(4-nitrophenyl)-1-oxopropan-2-yl)-7-methyl-4,6,6a,7,8,9-hexahydroindolo[4,3-fg]quinoline-9-carboxamide], for which the results for the Kd in assay [1] and in assay [2] were 20 nM and 700 nM, respectively.

With `CC(C)[C@H](NC(=O)[C@H](Cc1ccc([N+](=O)[O-])cc1)NC(=O)[C@@H]1C=C2c3cccc4[nH]cc(c34)C[C@H]2N(C)C1)C(=O)N1c2ccccc2C[C@H]1C(N)=O` [(6aR,9R)-N-((S)-1-((S)-1-((S)-2-carbamoylindolin-1-yl)-3-methyl-1-oxobutan-2-ylamino)-3-(4-nitrophenyl)-1-oxopropan-2-yl)-7-methyl-4,6,6a,7,8,9-hexahydroindolo[4,3-fg]quinoline-9-carboxamide], the results for the Kd in assay [3] and in assay [1] were 100 nM and 2000 nM, respectively.

On to `CC(C)[C@H](NC(=O)[C@@H]1C=C2c3cccc4[nH]cc(c34)C[C@H]2N(C)C1)C(=O)N[C@@H](Cc1ccc(F)cc1)C(=O)N1CCC[C@H]1C(N)=O` [(6aR,9R)-N-((S)-1-((S)-1-((S)-2-carbamoylpyrrolidin-1-yl)-3-(4-fluorophenyl)-1-oxopropan-2-ylamino)-3-methyl-1-oxobutan-2-yl)-7-methyl-4,6,6a,7,8,9-hexahydroindolo[4,3-fg]quinoline-9-carboxamide], for which the Kd stood at 16000 nM in assay [1] and 600 nM in assay [2].

Turning to `CC(C)[C@H](NC(=O)[C@@H]1C=C2c3cccc4[nH]cc(c34)C[C@H]2N(C)C1)C(=O)N[C@@H](Cc1ccc([N+](=O)[O-])cc1)C(=O)N1CCC[C@H]1C(N)=O` [(6aR,9R)-N-((S)-1-((S)-1-((S)-2-carbamoylpyrrolidin-1-yl)-3-(4-nitrophenyl)-1-oxopropan-2-ylamino)-3-methyl-1-oxobutan-2-yl)-7-methyl-4,6,6a,7,8,9-hexahydroindolo[4,3-fg]quinoline-9-carboxamide], in assay [2], the Kd came to 7800 nM.

In assay [2], `CC(C)[C@H](NC(=O)[C@H](CCC1CCCCC1)NC(=O)[C@@H]1C=C2c3cccc4[nH]cc(c34)C[C@H]2N(C)C1)C(=O)N1CCC[C@H]1C(N)=O` [(6aR,9R)-N-((S)-1-((S)-1-((S)-2-carbamoylpyrrolidin-1-yl)-3-methyl-1-oxobutan-2-ylamino)-4-cyclohexyl-1-oxobutan-2-yl)-7-methyl-4,6,6a,7,8,9-hexahydroindolo[4,3-fg]quinoline-9-carboxamide] came in with a Kd of 1200 nM.

`CC(C)[C@H](NC(=O)[C@H]1C=C2c3cccc4[nH]cc(c34)C[C@H]2N(C)C1)C(=O)N[C@@H](Cc1ccc([N+](=O)[O-])cc1)C(=O)N1CCC[C@H]1C(N)=O` [(6aR,9S)-N-((S)-1-((S)-1-((S)-2-carbamoylpyrrolidin-1-yl)-3-(4-nitrophenyl)-1-oxopropan-2-ylamino)-3-methyl-1-oxobutan-2-yl)-7-methyl-4,6,6a,7,8,9-hexahydroindolo[4,3-fg]quinoline-9-carboxamide] displayed a Kd in assay [2] of 700 nM.
